From patent publication US20130029967A1, “Fused Imidazo [3,2 - D] Pyrazines as P13 Kinase Inhibitors” (Centro Nacional de Investigaciones Oncologicas (CNIO), priority 2009, published 2013)
Read-outs that look alike come from different tables or passages of the source.

Columns and labels:
PI3K (p110α/p85α) = biological target: T1, PI3K (p110α/p85α) (Homo sapiens, UniProt P42336); assay: PI3K activity assay (ADP Hunter Plus); type: biochemical; settings: quantitative results, read-out: PI3K α IC50
T1 construct: purchased Carna Biosciences 07CBS-0402A
Description: The kinase activity was measured by using the commercial ADP Hunter™ Plus assay available from DiscoveRx (#33-016), which is a homogeneous assay to measure the accumulation of ADP, a universal product of kinase activity. […] Reaction was carried out for 1 hour at 25° C. Reagent A and B were sequentially added to the wells and plates were incubated for 30 min at 37° C. […] Values were normalized against the control activity included for each enzyme (i.e., 100% PI3 kinase activity, without compound). These values were plot against the inhibitor concentration and were fit to a sigmoid dose-response curve by using the Graphed software.

phospho-Ser-473-Akt = assay: AKT phosphorylation inhibition, Western blot analysis; type: cell-based; settings: cellular p-AKT
Description: (§1) Cell culture: The cell lines were obtained from the American Type Culture Collection (ATCC). U2OS (human osteosarcoma) was cultured in Dulbecco's modified Eagle's medium (DMEM). PC3 (human prostate carcinoma), MCF7 (human breast cardinoma), HCT116 (human colon carcinoma), […], U251 (human glyoblastoma) were grown in RPMI. All media were supplemented with 10% fetal bovine serum (FBS) (Sigma) and antibiotics-antimycotics. Cell were maintained in a humidified incubator at 37° C. with 5% CO2 and passaged when confluent using trypsin/EDTA.
AKT phosphorylation Inhibition Western Blot Analysis: Subconfluent cells were incubated under different conditions and washed twice with TBS prior to lysis. Lysis buffer was added containing 50 mM Tris HCl, 150 mM NaCl, 1% NP-40, 2 mM Na3VO4, 100 mM NaF, 20 mM Na4P2O7 and protease inhibitor cocktail (Roche Molecular Biochemicals). The proteins were resolved on 10% SDS-PAGE and transferred to nitrocellulose membrane (Schleicher & Schuell, Dassel, Germany). The membranes were incubated overnight at 4° C. with antibodies specific for Akt, phospho-Ser-473-Akt (Cell Signaling Technology) and α-tubulin (Sigma), they were washed and then incubated with IRDye800 conjugated anti-mouse and Alexa Fluor 680 goat anti-rabbit IgG secondary antibodies. The bands were visualized using an Odyssey infrared imaging system (Li-Cor Biosciences).

[1] = tested on: phospho-AKT (Ser473) in Osteosarcoma U2OS cells; assay: PI3K cellular activity, ELISA (phospho-AKT Ser473); type: cell-based; settings: Homo sapiens, cellular p-AKT
Description: as §1
Activity was measured as endogenous levels of phospho-AKT (Ser473) protein. Osteosarcoma U2OS cells were plated in 96 Poly-D-Lysine coating tissue culture plates (18.000 cells/well). After the treatment with serial dilutions of the compound during 3 h, the cells were fixed directly in the wells with 4% paraformaldehide. After fixing, individual wells went through the same series of steps used for a conventional immunoblot: including blocking with 5% BSA, incubation with 1/1000 of primary antibody-AKT ([…]) in PBS containing 5% BSA at 4° C. overnight (Cell Signalling), washing and incubation with second antibody HRP-anti-mouse IgG for 1 h at RT (Amersham). After the addition of SuperSignal ELISA Femto maximum sensitivity chemiluminescent substrate (Pierce) the results were read in a luminescence plate reader (Victor).

T1 sequence (P42336 whole entry): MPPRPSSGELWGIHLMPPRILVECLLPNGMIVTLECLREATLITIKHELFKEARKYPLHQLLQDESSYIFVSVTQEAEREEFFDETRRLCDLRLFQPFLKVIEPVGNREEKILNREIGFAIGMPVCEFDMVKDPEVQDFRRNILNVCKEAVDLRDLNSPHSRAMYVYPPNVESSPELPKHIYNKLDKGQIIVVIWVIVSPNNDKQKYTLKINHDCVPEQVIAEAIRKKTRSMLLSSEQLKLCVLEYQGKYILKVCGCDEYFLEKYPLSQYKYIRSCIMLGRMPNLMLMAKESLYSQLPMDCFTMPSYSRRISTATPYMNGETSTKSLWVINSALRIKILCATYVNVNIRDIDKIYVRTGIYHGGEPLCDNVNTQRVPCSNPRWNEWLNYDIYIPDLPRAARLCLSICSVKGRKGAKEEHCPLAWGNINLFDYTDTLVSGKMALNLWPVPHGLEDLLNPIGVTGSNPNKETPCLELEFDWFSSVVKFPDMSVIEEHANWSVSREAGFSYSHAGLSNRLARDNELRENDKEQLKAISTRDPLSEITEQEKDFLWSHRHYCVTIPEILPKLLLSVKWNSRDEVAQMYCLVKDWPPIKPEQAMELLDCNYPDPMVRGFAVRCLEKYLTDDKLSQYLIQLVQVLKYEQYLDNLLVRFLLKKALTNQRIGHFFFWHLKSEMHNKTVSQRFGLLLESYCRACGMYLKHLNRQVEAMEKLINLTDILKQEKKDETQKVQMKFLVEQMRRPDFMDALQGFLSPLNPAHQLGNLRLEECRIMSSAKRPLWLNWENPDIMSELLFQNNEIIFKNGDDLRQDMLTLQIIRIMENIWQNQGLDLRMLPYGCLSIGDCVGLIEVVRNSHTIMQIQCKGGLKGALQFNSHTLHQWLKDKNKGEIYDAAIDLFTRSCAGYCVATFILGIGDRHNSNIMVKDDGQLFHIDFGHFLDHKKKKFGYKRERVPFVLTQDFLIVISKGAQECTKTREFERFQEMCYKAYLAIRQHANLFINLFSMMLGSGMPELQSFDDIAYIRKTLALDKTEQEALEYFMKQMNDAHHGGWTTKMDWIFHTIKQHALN
T1 sequence (P27986 whole entry partner): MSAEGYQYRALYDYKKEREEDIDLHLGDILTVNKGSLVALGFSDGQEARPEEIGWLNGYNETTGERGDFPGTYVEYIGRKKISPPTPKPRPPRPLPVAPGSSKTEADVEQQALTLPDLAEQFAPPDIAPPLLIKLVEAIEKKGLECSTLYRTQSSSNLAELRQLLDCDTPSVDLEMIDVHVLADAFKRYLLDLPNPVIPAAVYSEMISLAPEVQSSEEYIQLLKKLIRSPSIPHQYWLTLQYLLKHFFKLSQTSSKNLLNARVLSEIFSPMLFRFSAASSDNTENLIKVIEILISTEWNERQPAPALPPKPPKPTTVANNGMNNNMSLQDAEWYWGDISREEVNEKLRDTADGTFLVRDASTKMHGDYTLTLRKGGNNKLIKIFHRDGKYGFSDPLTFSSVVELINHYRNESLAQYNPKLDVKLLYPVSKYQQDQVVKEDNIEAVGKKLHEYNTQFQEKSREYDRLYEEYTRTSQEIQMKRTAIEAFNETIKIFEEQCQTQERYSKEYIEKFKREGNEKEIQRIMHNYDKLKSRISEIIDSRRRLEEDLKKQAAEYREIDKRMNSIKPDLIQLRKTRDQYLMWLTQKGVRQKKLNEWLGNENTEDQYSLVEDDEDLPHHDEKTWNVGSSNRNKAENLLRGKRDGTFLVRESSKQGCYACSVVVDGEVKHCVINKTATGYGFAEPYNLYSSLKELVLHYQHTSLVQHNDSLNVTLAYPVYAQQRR

| SMILES | IC50 (PI3K (p110α/p85α); PI3Kα) | IC50 (phospho-Ser-473-Akt) | IC50 (PI3K (p110α/p85α)) | IC50 [1] |
| --- | --- | --- | --- | --- |
| CCOC(=O)N1CCc2nc3c(N4CCOCC4)nc(-c4cnc(N)nc4)c(Cl)n3c2C1 [2-32] | 84 nM | 78 nM | – | – |
| COCCN1CCc2c(nc3c(N4CCOCC4)nc(-c4cnc(N)nc4)cn23)C1 [6-03] | – | 532 nM | 50 nM | – |
| COc1ccc(CN2CCc3c(nc4c(N5CCOCC5)nc(-c5cnc(N)nc5)cn34)C2=O)cc1 [5-06] | – | 174 nM | 45 nM | – |
| COCCN1CCc2c(nc3c(N4CCOCC4)nc(-c4cnc(N)nc4)c(Cl)n23)C1 [6-09] | – | 180 nM | 121 nM | – |
| COc1ccccc1CNC(=O)N1CCc2c(nc3c(N4CCOCC4)nc(-c4cnc(N)nc4)cn23)C1 [6-46] | – | – | 7 nM | 112 nM |
| Nc1ncc(-c2cn3c4c(nc3c(N3CCOCC3)n2)CCN(Cc2ccccn2)C4)cn1 [2-18] | 69 nM | 245 nM | – | – |
| CCS(=O)(=O)N1CCc2nc3c(N4CCOCC4)nc(-c4cnc(N)nc4)cn3c2C1 [2-73] | 29 nM | – | – | 236 nM |
| Cc1ccc(CNC(=O)N2CCc3nc4c(N5CCOCC5)nc(-c5cnc(N)nc5)cn4c3C2)cc1 [2-94] | 37 nM | – | – | 260 nM |
| COCCS(=O)(=O)N1CCc2nc3c(N4CCOCC4)nc(-c4cnc(N)nc4)cn3c2C1 [2-85] | 54 nM | – | – | 344 nM |
| Nc1ncc(-c2cn3c4c(nc3c(N3CCOCC3)n2)CCN(C(=O)NCc2cccc(F)c2)C4)cn1 [2-83] | 25 nM | – | – | 497 nM |
| COc1cccc(NC(=O)N2CCc3nc4c(N5CCOCC5)nc(-c5cnc(N)nc5)cn4c3C2)c1 [2-93] | 64 nM | – | – | 415 nM |
| c1cc(-c2cn3c4c(nc3c(N3CCOCC3)n2)CCNC4)c2cn[nH]c2c1 [2-04] | 755 nM | 56 nM | – | – |
| CN(C)c1ccc(NC(=O)N2CCc3c(nc4c(N5CCOCC5)nc(-c5cnc(N)nc5)cn34)C2)cc1 [6-39] | – | – | 17 nM | 187 nM |
| Nc1ncc(-c2cn3c4c(nc3c(N3CCOCC3)n2)CN(C(=O)Nc2cccc(F)c2)CC4)cn1 [6-45] | – | – | 14 nM | 101 nM |
| CS(=O)(=O)N1CCc2c(nc3c(N4CCOCC4)nc(-c4cnc(N)nc4)c(Cl)n23)C1 [6-17] | – | – | 33 nM | 246 nM |
| CN(C)c1ccc(NC(=O)N2CCc3nc4c(N5CCOCC5)nc(-c5cnc(N)nc5)cn4c3C2)cc1 [2-74] | 74 nM | – | – | 888 nM |

| SMILES | IC50 (PI3K (p110α/p85α); PI3Kα) | IC50 (phospho-Ser-473-Akt) | IC50 (PI3K (p110α/p85α)) | IC50 [1] |
| --- | --- | --- | --- | --- |
| COc1ccc(CNC(=O)N2CCc3nc4c(N5CCOCC5)nc(-c5cnc(N)nc5)cn4c3C2)cc1 [2-96] | 28 nM | – | – | 385 nM |
| Nc1ncc(-c2cn3c4c(nc3c(N3CCOCC3)n2)CCC(=O)N4)cn1 [5-11] | – | – | 14 nM | 475 nM |
| Nc1ncc(-c2cn3c4c(nc3c(N3CCOCC3)n2)CCN(C(=O)NCc2ccccc2F)C4)cn1 [2-90] | 46 nM | – | – | 302 nM |
| COc1cccc(CNC(=O)N2CCc3nc4c(N5CCOCC5)nc(-c5cnc(N)nc5)cn4c3C2)c1 [2-97] | 38 nM | – | – | 491 nM |
| Nc1ncc(-c2cn3c4c(nc3c(N3CCOCC3)n2)CN(C(=O)Nc2ccccc2F)CC4)cn1 [6-36] | – | – | 21 nM | 250 nM |
| CC(C)CS(=O)(=O)N1CCc2nc3c(N4CCOCC4)nc(-c4cnc(N)nc4)cn3c2C1 [2-109] | 95 nM | – | – | 763 nM |
| Nc1ncc(-c2cn3c4c(nc3c(N3CCOCC3)n2)CCN(S(=O)(=O)C2CCCC2)C4)cn1 [2-69] | 23 nM | – | – | 450 nM |
| COc1ccccc1NC(=O)N1CCc2c(nc3c(N4CCOCC4)nc(-c4cnc(N)nc4)cn23)C1 [6-33] | – | – | 25 nM | 188 nM |
| Cc1ccc(NC(=O)N2CCc3nc4c(N5CCOCC5)nc(-c5cnc(N)nc5)cn4c3C2)cc1 [2-105] | 44 nM | – | – | 345 nM |
| CC(C)C(=O)N1CCc2c(nc3c(N4CCOCC4)nc(-c4cnc(N)nc4)cn23)C1 [6-26] | – | – | 44 nM | 137 nM |
| Nc1ncc(-c2cn3c4c(nc3c(N3CCOCC3)n2)CN(C(=O)NCc2ccccc2F)CC4)cn1 [6-44] | – | – | 7 nM | 139 nM |
| Nc1ncc(-c2cn3c4c(nc3c(N3CCOCC3)n2)CCN(C(=O)Nc2cccc(F)c2)C4)cn1 [2-91] | 75 nM | – | – | 443 nM |
| CN1CCc2c(nc3c(N4CCOCC4)nc(-c4cnc(N)nc4)cn23)C1 [6-02] | – | 318 nM | 88 nM | – |
| CC(C)S(=O)(=O)N1CCc2nc3c(N4CCOCC4)nc(-c4cnc(N)nc4)cn3c2C1 [2-59] | 77 nM | – | – | 853 nM |
| CS(=O)(=O)N1CCc2nc3c(N4CCOCC4)nc(-c4cnc(N)nc4)c(Cl)n3c2C1 [2-49] | 9 nM | – | – | 95 nM |
| COc1ccccc1NC(=O)N1CCc2nc3c(N4CCOCC4)nc(-c4cnc(N)nc4)cn3c2C1 [2-72] | 47 nM | – | – | 473 nM |
